{"source": "patent US20070077261A1", "about": "(priority 2005, published 2007)", "origin": "cited, not measured here", "conditions": "amount dissolving in 2 ml of glycerin; The Merck Index, 11th Edition"}
{"smiles": "NC(N)=O", "note": "[urea]", "values": [{"measurement": "solubility of urea in glycerin", "result": 1, "unit": "gram"}]}
